These are literature values, as cited in article PMC3547486 (ACS Chemical Neuroscience, 2012).

The subject of this data set is 5-HT release.

On to `Clc1cccc(N2CCNCC2)c1` [mCPP, m-chlorophenylpiperazine], for which the “5-HT releasing activity (in words)” value was “potent 5-HT releaser”.
